Results from US4061630A, “7-Substituted-ureido-3-carbamoyloxymethyl cephalosporin antibiotics” (Eli Lilly and Company, priority 1976, dated 1977).
Values after ≈ are worked out from the molar mass of the structure shown.

Legend:
Shigella sp. = assay: in vitro antibiotic activity by the Gradient Plate method, Shigella; type: cell-based; conditions: read-out: Minimum Inhibitory Concentration vs. Shigella sp.
Protocol: (§1) The antibiotic activity for these compounds is illustrated by the activity data in the following Table II. In the Table, the compounds designated by the groups R, R1 and R2 have reference to the following formula I [drawing 35] and the in vitro activity was determined by the Gradient Plate method.

Escherichia coli = assay: in vitro antibiotic activity by the Gradient Plate method, E. coli; type: cell-based; conditions: read-out: Minimum Inhibitory Concentration vs. Escherichia coli
Protocol: as §1

Klebsiella pneumoniae = assay: in vitro antibiotic activity by the Gradient Plate method, Klebsiella; type: cell-based; conditions: read-out: Minimum Inhibitory Concentration vs. Klebsiella pneumoniae
Protocol: as §1

Enterobacter aerogenes = assay: in vitro antibiotic activity by the Gradient Plate method, Enterobacter; type: cell-based; conditions: Klebsiella aerogenes, read-out: Minimum Inhibitory Concentration vs. Enterobacter aerogenes
Protocol: as §1

Salmonella heidelberg = assay: in vitro antibiotic activity by the Gradient Plate method, Salmonella; type: cell-based; conditions: Salmonella enterica, read-out: Minimum Inhibitory Concentration vs. Salmonella heidelberg
Protocol: as §1

Pseudomonas aeruginosa = assay: in vitro antibiotic activity by the Gradient Plate method, Pseudomonas; type: cell-based; conditions: read-out: Minimum Inhibitory Concentration vs. Pseudomonas aeruginosa
Protocol: as §1

Serratia marcescens = assay: in vitro antibiotic activity by the Gradient Plate method, Serratia; type: cell-based; conditions: read-out: Minimum Inhibitory Concentration vs. Serratia marcescens
Protocol: as §1

Titration 66 percent DMF = type: physicochemical; conditions: 66% dmf
Source text: IR (KBr): 1770 cm^-1 (β-lactam carbonyl) U.V. (methanol): γ max 278 (ε17,921) Titration 66 percent DMF: pKa 4.98.

pKa (Titration 66 percent DMF) | Compound | MIC (Shigella sp.) | MIC (Escherichia coli) | MIC (Klebsiella pneumoniae) | MIC (Enterobacter aerogenes) | MIC (Salmonella heidelberg) | MIC (Pseudomonas aeruginosa) | MIC (Serratia marcescens)
 | CN(C(=O)C=Cc1ccccc1)C(=O)NC(C(=O)NC1C(=O)N2C(C(=O)O)=C(COC(N)=O)CSC12)c1ccccc1 (stereo not drawn) | 1 µg/mL (≈ 1.68 µM) | 5.5 µg/mL (≈ 9.27 µM) | 0.3 µg/mL (≈ 0.505 µM) | 8 µg/mL (≈ 13.5 µM) | 6.5 µg/mL (≈ 10.9 µM) | 21.8 µg/mL (≈ 36.7 µM) | 8 µg/mL (≈ 13.5 µM)
 | CNC(=O)NC(=O)NC(C(=O)NC1C(=O)N2C(C(=O)O)=C(COC(N)=O)CSC12)c1ccc(O)cc1 (stereo not drawn) | 17.3 µg/mL (≈ 33.1 µM) | 27.2 µg/mL (≈ 52.1 µM) | 100 µg/mL (≈ 191 µM) | 18.5 µg/mL (≈ 35.4 µM) | 12.5 µg/mL (≈ 23.9 µM) | 33.3 µg/mL (≈ 63.7 µM) | > 200 µg/mL
 | CNC(=O)N(C)C(=O)NC(C(=O)NC1C(=O)N2C(C(=O)O)=C(COC(N)=O)CSC12)c1ccc(O)cc1 (stereo not drawn) | 4.5 µg/mL (≈ 8.39 µM) | 10 µg/mL (≈ 18.6 µM) | 10 µg/mL (≈ 18.6 µM) | 5.5 µg/mL (≈ 10.3 µM) | 5 µg/mL (≈ 9.32 µM) | 13.5 µg/mL (≈ 25.2 µM) | 160 µg/mL (≈ 298 µM)
 | CNC(=O)N(C)C(=O)NC(C(=O)NC1C(=O)N2C(C(=O)O)=C(COC(N)=O)CSC12)c1ccccc1 (stereo not drawn) | 7 µg/mL (≈ 13.4 µM) | 17.8 µg/mL (≈ 34.2 µM) | 7.8 µg/mL (≈ 15 µM) | 19.5 µg/mL (≈ 37.5 µM) | 8.5 µg/mL (≈ 16.3 µM) | 18.3 µg/mL (≈ 35.2 µM) | 67.5 µg/mL (≈ 130 µM)
 | CNC(=O)NC(=O)NC(C(=O)NC1C(=O)N2C(C(=O)O)=C(COC(N)=O)CSC12)c1ccccc1 (stereo not drawn) | 21.5 µg/mL (≈ 42.4 µM) | 51.3 µg/mL (≈ 101 µM) | 35 µg/mL (≈ 69.1 µM) | 65 µg/mL (≈ 128 µM) | 30 µg/mL (≈ 59.2 µM) | 22.8 µg/mL (≈ 45 µM) | > 200 µg/mL
 | CS(=O)(=O)N1CCN(C(=O)NC(C(=O)NC2C(=O)N3C(C(=O)O)=C(COC(N)=O)CSC23)c2ccc(O)cc2)C1=O (stereo not drawn) | 4.3 µg/mL (≈ 7.02 µM) | 10 µg/mL (≈ 16.3 µM) | 5.5 µg/mL (≈ 8.98 µM) | 10 µg/mL (≈ 16.3 µM) | 4.8 µg/mL (≈ 7.84 µM) | 47.5 µg/mL (≈ 77.5 µM) | 100 µg/mL (≈ 163 µM)
 | NC(=O)OCC1=C(C(=O)O)N2C(=O)C(NC(=O)C(NC(=O)NC(=O)c3ccco3)c3ccc(O)cc3)C2SC1 (stereo not drawn) | 12.5 µg/mL (≈ 22.3 µM) | 17.2 µg/mL (≈ 30.7 µM) | 16 µg/mL (≈ 28.6 µM) | 17.2 µg/mL (≈ 30.7 µM) | 16 µg/mL (≈ 28.6 µM) | 10 µg/mL (≈ 17.9 µM) | 120 µg/mL (≈ 214 µM)
 | CNC(=O)OCC1=C(C(=O)O)N2C(=O)C(NC(=O)C(NC(=O)N(C)C(=O)NC)c3ccccc3)C2SC1 (stereo not drawn) [7-[α-(3-Methylcarbamoyl-3-methyl-1-ureido)-α-phenylacetamido]-3-N-methylcarbamoyloxymethyl-3-cephem-4-carboxylic acid] | 5.5 µg/mL (≈ 10.3 µM) | 15.5 µg/mL (≈ 29 µM) | 7 µg/mL (≈ 13.1 µM) | 19.5 µg/mL (≈ 36.5 µM) | 8.5 µg/mL (≈ 15.9 µM) | 30 µg/mL (≈ 56.1 µM) | 42.5 µg/mL (≈ 79.5 µM)
4.98 | CN(C(=O)C=Cc1ccccc1)C(=O)N[C@@H](C(=O)NC1C(=O)N2C(C(=O)O)=C(COC(N)=O)CSC12)c1ccccc1 (stereo partly drawn) [Example 8, 7-[D-α-(3-Cinnamoyl-3-methyl-1-ureido)-α-phenylacetamido]-3-carbamoyloxymethyl-3-cephem-4-carboxylic acid] |  |  |  |  |  |  | 
